Literature values as cited in US8435497B2, “Formoterol of and ciclesonide combination” (Takeda GmbH, priority 2003, dated 2013).

Key:
[1] = not given; remark: listed apart in the source
[2] = relative to budesonide

**Q.** For `CC(C)C(=O)OCC(=O)[C@@]12O[C@H](C3CCCCC3)O[C@@H]1C[C@H]1[C@@H]3CCC4=CC(=O)C=C[C@]4(C)[C@H]3[C@@H](O)C[C@@]12C` [Ciclesonide, [11β,16α(R)]-16,17-[(Cyclohexylmethylen)bis(oxy)]-11-hydroxy-21-(2-methyl-1-oxopropoxy)pregna-1,4-dien-3,20-dion], which “metabolism by liver oxidases” value (liver oxidases) is on record?
**A.** very high

**Q.** What about the “concentration of the drug in the lungs” value (lungs) of the same compound?
**A.** high

**Q.** What about the “absorption after oral administration” value (oral administration) of the same compound?
**A.** only moderately absorbed

**Q.** And the plasma half-life (plasma)?
**A.** low plasma half-life

**Q.** And the systemic activity ([1]; in vivo)?
**A.** low systemic activity

**Q.** What about the “systemic activity compared with budesonide” value ([1]; relative to budesonide) of the same compound?
**A.** three times lower

**Q.** And the “anti-inflammatory activity compared with budesonide” value [2]?
**A.** higher
